We go through seven molecules from ChEMBL document CHEMBL5380798, “Novel Strategy To Inhibit Transthyretin Amyloidosis via the Synergetic Effect of Chemoselective Acylation and Noncovalent Inhibitor Release” (J Med Chem, 2023).

A word on the inhibition: it is the change of the read-out against control, counted positive when it falls. Usually IC50 stands for the concentration that gives 50% inhibition.

In test [1] the target is T1, Transthyretin (Homo sapiens, UniProt P02766). Kind of test: Inhibition of recombinant wild-type Transthyretin (unknown origin) expressed in Escherichia coli expression system assessed as acid mediated fibril formation at 3.6 uM preincubated for 2 hrs followed by addition of acetate buffer solution and measured after 72 hrs by UV-vis spectrophotometry relative to control. The settings on record: time 74.0 hrs, values are per cent of control.

For test [2], the target named is T1, Transthyretin. Kind of test: Inhibition of recombinant wild-type Transthyretin (unknown origin) expressed in Escherichia coli expression system assessed as acid mediated fibril formation at 1.8 uM preincubated for 2 hrs followed by addition of acetate buffer solution and measured after 72 hrs by UV-vis spectrophotometry relative to control. The settings on record: time 74.0 hrs, values are per cent of control.

Test [3] concerns Transthyretin (Homo sapiens), P02766 [V50M]. Kind of test: Inhibition of recombinant Transthyretin V30M mutant (unknown origin) expressed in Escherichia coli expression system assessed as acid mediated fibril formation at 3.6 uM preincubated for 2 hrs followed by addition of acetate buffer solution and measured after 72 hrs by UV-vis spectrophotometry relative to control. The settings on record: time 74.0 hrs, values are per cent of control.

For test [4] the test system is unchanged. The experiment in a line: Inhibition of recombinant Transthyretin V30M mutant (unknown origin) expressed in Escherichia coli expression system assessed as acid mediated fibril formation at 1.8 uM preincubated for 2 hrs followed by addition of acetate buffer solution and measured after 72 hrs by UV-vis spectrophotometry relative to control. As to conditions: time 74.0 hrs, values are per cent of control.

Test [5] has as its target T1, Transthyretin. Kind of test: Inhibition of recombinant wild-type Transthyretin (unknown origin) expressed in Escherichia coli expression system assessed as acid mediated fibril formation at 1.8 uM measured after 120 hrs by UV-vis spectrophotometry relative to control.
Test [6] deals with T1, Transthyretin.
Description: Covalent inhibition of urea-induced Transthyretin denaturation in human plasma preincubated for 1 hr followed by urea addition by Western blot analysis
The subject of test [7] is Transthyretin (Homo sapiens), P02766 [V50M]. Kind of test: Inhibition of recombinant Transthyretin V30M mutant (unknown origin) assessed as acid mediated fibril formation at 7.2 uM relative to control.

Where only a bound is given, the exact number is not on record here.

For `CCC(C)C(=O)Oc1c(Br)cc(/C=C/c2c(C)n[nH]c2C)cc1Br` (stereo unspecified), the response, % of control on Transthyretin [1] was 0.3%; at Transthyretin [2], 2.2%; in test [3], 2.9%; in test [4] it was 18%.

On to `O=C(O)c1ccc2nc(-c3cc(Cl)cc(Cl)c3)oc2c1`, for which the response, % of control at Transthyretin [1] is 11.1%; on Transthyretin [2], 40.9%; in test [3] it was 21%; in test [4], 53.8%. Also, the inhibition at Transthyretin [5] is 46%.

On to `Cc1n[nH]c(C)c1/C=C/c1cc(Br)c(OC(=O)c2c(F)cc(F)cc2F)c(Br)c1`, for which the response, % of control at Transthyretin [1] was 0.3%; at Transthyretin [2], 0.8%; in test [3], 3%; in test [4] it was 13.8%. In addition, at Transthyretin [5], the inhibition was less than 5%. Further, 470 nM corresponded to half-maximal inhibition at Transthyretin [6] (IC50).

With `Cc1n[nH]c(C)c1/C=C/c1cc(Br)c(OC(=O)c2c(F)cccc2F)c(Br)c1`, the response, % of control came out at 0.3% at Transthyretin [1], 1.2% at Transthyretin [2], 3.5% in test [3] and 14.8% in test [4]. Moreover, the inhibition at Transthyretin [5] is less than 5%. The IC50 against Transthyretin [6] worked out at 570 nM.

Regarding `CCCC(=O)Oc1c(Br)cc(/C=C/c2c(C)n[nH]c2C)cc1Br`, the response, % of control on Transthyretin [1] amounted to 0.3%; on Transthyretin [2], 2.7%; in test [3], 6.6%; in test [4] it was 23.5%.

For `Cc1n[nH]c(C)c1/C=C/c1cc(Br)c(O)c(Br)c1`, the inhibition in test [7] stood at 39%. Besides, the response, % of control at Transthyretin [1] was 9.2%; at Transthyretin [2], 17.3%; in test [3], 11.1%; in test [4], 41.7%.

For `Cc1n[nH]c(C)c1/C=C/c1cc(Br)c(OC(=O)c2ccc(F)cc2)c(Br)c1`, the response, % of control at Transthyretin [1] stood at 0.2%; at Transthyretin [2], 5.7%; in test [3] it was 3.9%; in test [4], 15.7%. Moreover, the inhibition at Transthyretin [5] was less than 5%. This molecule returned an IC50 against Transthyretin [6] of 450 nM.
